Earlier results, collected in patent US20260101892A1, “METHOD TO INHIBIT PROLIFERATION OF A PHYTOPATHOGEN ON PLANTS AND COMPOSITIONS USED FOR THIS PURPOSE” (CYSBIO APS, priority 2022, published 2026).
Read-outs that look alike come from different tables or passages of the source. Marks after values point to notes of the source that are not given here.

How the values were obtained:
E. coli [1] = conditions: cited from earlier work; for Planktonic growth A600/min (×10^−3): LB medium, 30° C., 24 hours; for Planktonic growth Reduction (%): (compound − control) × 100 / control, negative = reduction; for biocidal effect: at the concentrations tested by Catto et al. (0.183-1830 μM)
E. coli [2] = conditions: cited from earlier work; for Cell adhesion Reduction (%): (compound − control) × 100 / control, negative = reduction; for concentrations at which anti-biofilm efficacy is shown: Catto et al., table 1; for anti-biofilm activity (cell adhesion): at the concentrations tested by Catto et al. (0.183-1830 μM)

Compound | Planktonic growth A600/min (×10^−3) (E. coli [1]; 0.183 μM) | Planktonic growth Reduction (%) (E. coli [1]; 0.183 μM) | Planktonic growth A600/min (×10^−3) (E. coli [1]; 1.83 μM) | Planktonic growth Reduction (%) (E. coli [1]; 1.83 μM) | Planktonic growth A600/min (×10^−3) (E. coli [1]; 18.3 μM) | Planktonic growth Reduction (%) (E. coli [1]; 18.3 μM) | Planktonic growth A600/min (×10^−3) (E. coli [1]; 183 μM) | Planktonic growth Reduction (%) (E. coli [1]; 183 μM) | Planktonic growth A600/min (×10^−3) (E. coli [1]; 1830 μM) | Planktonic growth Reduction (%) (E. coli [1]; 1830 μM) | Cell adhesion Reduction (%) (E. coli [2]; 0.183 μM) | Cell adhesion N. adhered cells (×10^7) (E. coli [2]; 0.183 μM) | Cell adhesion Reduction (%) (E. coli [2]; 1.83 μM) | Cell adhesion N. adhered cells (×10^7) (E. coli [2]; 1.83 μM) | Cell adhesion Reduction (%) (E. coli [2]; 18.3 μM) | Cell adhesion N. adhered cells (×10^7) (E. coli [2]; 18.3 μM) | Cell adhesion Reduction (%) (E. coli [2]; 183 μM) | Cell adhesion N. adhered cells (×10^7) (E. coli [2]; 183 μM) | Cell adhesion Reduction (%) (E. coli [2]; 1830 μM) | Cell adhesion N. adhered cells (×10^7) (E. coli [2]; 1830 μM) | also measured
O=C(O)/C=C/c1ccc(OS(=O)(=O)O)cc1 [Trans zosteric acid, trans-zosteric acid] | 1.32 ± 0.06^a A600/min (×10^−3) | 2.86% | 1.31 ± 0.04^a A600/min (×10^−3) | 1.76% | 1.29 ± 0.04^a A600/min (×10^−3) | 0.11% | 1.30 ± 0.04^a A600/min (×10^−3) | 1.07% | 1.30 ± 0.04^a A600/min (×10^−3) | 1.21% | 44.59% | 2.77 ± 0.17^d ×10^7 | −19.76% | 1.54 ± 0.29^c ×10^7 | −19.34% | 1.55 ± 0.19^c ×10^7 | −27.67% | 1.39 ± 0.13^c ×10^7 | −70.56% | 0.56 ± 0.12^a ×10^7 | biocidal effect (E. coli [1]): no biocidal effect; concentrations at which anti-biofilm efficacy is shown (E. coli [2]): > 1.83 µM; anti-biofilm activity (cell adhesion) (E. coli [2]; listed as trans-isomer of zosteric acid): highly effective
O=C(O)/C=C\c1ccc(O)cc1 [Cis-coumaric acid, cis-coumaric acid] | 1.29 ± 0.07^a A600/min (×10^−3) | 0.30% | 1.27 ± 0.05^a A600/min (×10^−3) | −0.88% | 1.27 ± 0.04^a A600/min (×10^−3) | −1.26% | 1.28 ± 0.06^a A600/min (×10^−3) | −0.16% | 1.25 ± 0.02^a A600/min (×10^−3) | −2.25% | −27.34% | 1.39 ± 0.15^abc ×10^7 | −14.39% | 1.64 ± 0.11^bc ×10^7 | −4.30% | 1.83 ± 0.14^bc ×10^7 | −15.26% | 1.62 ± 0.19^bc ×10^7 | 184.36% | 5.45 ± 1.00^e ×10^7 | biocidal effect (E. coli [1]): no biocidal activity; anti-biofilm activity (cell adhesion) (E. coli [2]): strongly reduced anti-biofilm activity
O=C(O)/C=C/c1ccccc1 [Trans-cinnamic acid, trans-cinnamic acid] | 1.24 ± 0.04^abcd A600/min (×10^−3) | −3.32% | 1.22 ± 0.01^abcdf A600/min (×10^−3) | −4.74% | 1.19 ± 0.04^bcdef A600/min (×10^−3) | −7.58% | 1.14 ± 0.05^def A600/min (×10^−3) | −11.37% | 0.83 ± 0.02^h A600/min (×10^−3) | −35.10% | −34.95% | 1.25 ± 0.43^cdef ×10^7 | −38.77% | 1.17 ± 0.17^cdf ×10^7 | −7.37% | 1.78 ± 0.10^bcef ×10^7 | −25.03% | 1.44 ± 0.15^bcdef ×10^7 | −31.11% | 1.32 ± 0.28^cdef ×10^7 | concentrations at which anti-biofilm efficacy is shown (E. coli [2]): > 0.183 µM
